According to the NIST ThermoML archive (doi:10.1016/j.jct.2015.01.004):
“And” between values parts separate entries of the source, which are not always exact repeats. Equal values may be shown once.

Experiment: molar heat capacity at constant pressure; xn = mol fraction of the nth substance listed
Conditions: 100 kPa

[Si] [silicon] + [Li]
Conditions | molar heat capacity at constant pressure
46.23 K, Crystal of intercomponent compound 2, relaxation calorimeter, x2 = 0.804 | 2.145 J/K/mol and 2.142 J/K/mol
48.69 K, Crystal of intercomponent compound 1, relaxation calorimetry, x2 = 0.81 | 2.259 J/K/mol
48.7 K, Crystal of intercomponent compound 2, relaxation calorimeter, x2 = 0.804 | 2.429 J/K/mol
48.72 K, Crystal of intercomponent compound 2, relaxation calorimeter, x2 = 0.804 | 2.429 J/K/mol
50 K, Crystal of intercomponent compound 1, relaxation calorimetry + DSC, x2 = 0.81 | 2.41 J/K/mol
50 K, Crystal of intercomponent compound 2, relaxation calorimetry + DSC, x2 = 0.804 | 2.61 J/K/mol
51.29 K, Crystal of intercomponent compound 1, relaxation calorimetry, x2 = 0.81 | 2.56 J/K/mol
51.3 K, Crystal of intercomponent compound 2, relaxation calorimeter, x2 = 0.804 | 2.74 J/K/mol
54.03 K, Crystal of intercomponent compound 1, relaxation calorimetry, x2 = 0.81 | 2.89 J/K/mol
54.03 K, Crystal of intercomponent compound 2, relaxation calorimeter, x2 = 0.804 | 3.08 J/K/mol
54.04 K, Crystal of intercomponent compound 2, relaxation calorimeter, x2 = 0.804 | 3.08 J/K/mol
56.91 K, Crystal of intercomponent compound 1, relaxation calorimetry, x2 = 0.81 | 3.26 J/K/mol
56.92 K, Crystal of intercomponent compound 2, relaxation calorimeter, x2 = 0.804 | 3.45 J/K/mol
59.95 K, Crystal of intercomponent compound 1, relaxation calorimetry, x2 = 0.81 | 3.65 J/K/mol
59.96 K, Crystal of intercomponent compound 2, relaxation calorimeter, x2 = 0.804 | 3.84 J/K/mol
60 K, Crystal of intercomponent compound 1, relaxation calorimetry + DSC, x2 = 0.81 | 3.63 J/K/mol
60 K, Crystal of intercomponent compound 2, relaxation calorimetry + DSC, x2 = 0.804 | 3.81 J/K/mol
63.15 K, Crystal of intercomponent compound 1, relaxation calorimetry, x2 = 0.81 | 4.08 J/K/mol
63.17 K, Crystal of intercomponent compound 2, relaxation calorimeter, x2 = 0.804 | 4.27 J/K/mol
63.18 K, Crystal of intercomponent compound 2, relaxation calorimeter, x2 = 0.804 | 4.27 J/K/mol
66.53 K, Crystal of intercomponent compound 1, relaxation calorimetry, x2 = 0.81 | 4.52 J/K/mol
66.54 K, Crystal of intercomponent compound 2, relaxation calorimeter, x2 = 0.804 | 4.72 J/K/mol
66.55 K, Crystal of intercomponent compound 2, relaxation calorimeter, x2 = 0.804 | 4.73 J/K/mol
70 K, Crystal of intercomponent compound 1, relaxation calorimetry + DSC, x2 = 0.81 | 5.02 J/K/mol
70 K, Crystal of intercomponent compound 2, relaxation calorimetry + DSC, x2 = 0.804 | 5.21 J/K/mol
70.08 K, Crystal of intercomponent compound 1, relaxation calorimetry, x2 = 0.81 | 5.02 J/K/mol
70.1 K, Crystal of intercomponent compound 2, relaxation calorimeter, x2 = 0.804 | 5.22 J/K/mol
70.11 K, Crystal of intercomponent compound 2, relaxation calorimeter, x2 = 0.804 | 5.22 J/K/mol
73.83 K, Crystal of intercomponent compound 1, relaxation calorimetry, x2 = 0.81 | 5.54 J/K/mol
73.84 K, Crystal of intercomponent compound 2, relaxation calorimeter, x2 = 0.804 | 5.75 J/K/mol
73.86 K, Crystal of intercomponent compound 2, relaxation calorimeter, x2 = 0.804 | 5.75 J/K/mol
77.77 K, Crystal of intercomponent compound 1, relaxation calorimetry, x2 = 0.81 | 6.09 J/K/mol
77.78 K, Crystal of intercomponent compound 2, relaxation calorimeter, x2 = 0.804 | 6.31 J/K/mol
77.8 K, Crystal of intercomponent compound 2, relaxation calorimeter, x2 = 0.804 | 6.32 J/K/mol
80 K, Crystal of intercomponent compound 1, relaxation calorimetry + DSC, x2 = 0.81 | 6.43 J/K/mol
80 K, Crystal of intercomponent compound 2, relaxation calorimetry + DSC, x2 = 0.804 | 6.65 J/K/mol
81.93 K, Crystal of intercomponent compound 1, relaxation calorimetry, x2 = 0.81 | 6.66 J/K/mol
81.94 K, Crystal of intercomponent compound 2, relaxation calorimeter, x2 = 0.804 | 6.9 J/K/mol
81.95 K, Crystal of intercomponent compound 2, relaxation calorimeter, x2 = 0.804 | 6.9 J/K/mol
86.31 K, Crystal of intercomponent compound 1, relaxation calorimetry, x2 = 0.81 | 7.27 J/K/mol
86.32 K, Crystal of intercomponent compound 2, relaxation calorimeter, x2 = 0.804 | 7.53 J/K/mol
86.33 K, Crystal of intercomponent compound 2, relaxation calorimeter, x2 = 0.804 | 7.53 J/K/mol
90 K, Crystal of intercomponent compound 1, relaxation calorimetry + DSC, x2 = 0.81 | 7.82 J/K/mol
90 K, Crystal of intercomponent compound 2, relaxation calorimetry + DSC, x2 = 0.804 | 8.08 J/K/mol
90.93 K, Crystal of intercomponent compound 1, relaxation calorimetry, x2 = 0.81 | 7.89 J/K/mol
90.93 K, Crystal of intercomponent compound 2, relaxation calorimeter, x2 = 0.804 | 8.14 J/K/mol
90.95 K, Crystal of intercomponent compound 2, relaxation calorimeter, x2 = 0.804 | 8.17 J/K/mol
91 K, Crystal of intercomponent compound 2, relaxation calorimeter, x2 = 0.804 | 8.16 J/K/mol
91.01 K, Crystal of intercomponent compound 1, relaxation calorimetry, x2 = 0.81 | 7.88 J/K/mol
91.02 K, Crystal of intercomponent compound 2, relaxation calorimeter, x2 = 0.804 | 8.18 J/K/mol
95.01 K, Crystal of intercomponent compound 1, relaxation calorimetry, x2 = 0.81 | 8.41 J/K/mol
95.02 K, Crystal of intercomponent compound 2, relaxation calorimeter, x2 = 0.804 | 8.71 J/K/mol
95.04 K, Crystal of intercomponent compound 2, relaxation calorimeter, x2 = 0.804 | 8.73 J/K/mol
99.06 K, Crystal of intercomponent compound 2, relaxation calorimeter, x2 = 0.804 | 9.29 J/K/mol
99.07 K, Crystal of intercomponent compound 1, relaxation calorimetry, x2 = 0.81 | 8.94 J/K/mol
99.08 K, Crystal of intercomponent compound 2, relaxation calorimeter, x2 = 0.804 | 9.32 J/K/mol
100 K, Crystal of intercomponent compound 1, relaxation calorimetry + DSC, x2 = 0.81 | 9.14 J/K/mol
100 K, Crystal of intercomponent compound 2, relaxation calorimetry + DSC, x2 = 0.804 | 9.44 J/K/mol
103.16 K, Crystal of intercomponent compound 1, relaxation calorimetry, x2 = 0.81 | 9.52 J/K/mol
103.16 K, Crystal of intercomponent compound 2, relaxation calorimeter, x2 = 0.804 | 9.83 J/K/mol
103.18 K, Crystal of intercomponent compound 2, relaxation calorimeter, x2 = 0.804 | 9.87 J/K/mol
107.24 K, Crystal of intercomponent compound 1, relaxation calorimetry, x2 = 0.81 | 10.04 J/K/mol
107.25 K, Crystal of intercomponent compound 2, relaxation calorimeter, x2 = 0.804 | 10.37 J/K/mol
107.26 K, Crystal of intercomponent compound 2, relaxation calorimeter, x2 = 0.804 | 10.4 J/K/mol
110 K, Crystal of intercomponent compound 1, relaxation calorimetry + DSC, x2 = 0.81 | 10.39 J/K/mol
110 K, Crystal of intercomponent compound 2, relaxation calorimetry + DSC, x2 = 0.804 | 10.73 J/K/mol
111.29 K, Crystal of intercomponent compound 1, relaxation calorimetry, x2 = 0.81 | 10.53 J/K/mol
111.29 K, Crystal of intercomponent compound 2, relaxation calorimeter, x2 = 0.804 | 10.88 J/K/mol
111.31 K, Crystal of intercomponent compound 2, relaxation calorimeter, x2 = 0.804 | 10.88 J/K/mol
115.39 K, Crystal of intercomponent compound 1, relaxation calorimetry, x2 = 0.81 | 11.05 J/K/mol
115.4 K, Crystal of intercomponent compound 2, relaxation calorimeter, x2 = 0.804 | 11.39 J/K/mol
115.41 K, Crystal of intercomponent compound 2, relaxation calorimeter, x2 = 0.804 | 11.41 J/K/mol
119.47 K, Crystal of intercomponent compound 1, relaxation calorimetry, x2 = 0.81 | 11.55 J/K/mol
119.47 K, Crystal of intercomponent compound 2, relaxation calorimeter, x2 = 0.804 | 11.87 J/K/mol
119.49 K, Crystal of intercomponent compound 2, relaxation calorimeter, x2 = 0.804 | 11.92 J/K/mol
120 K, Crystal of intercomponent compound 1, relaxation calorimetry + DSC, x2 = 0.81 | 11.56 J/K/mol
120 K, Crystal of intercomponent compound 2, relaxation calorimetry + DSC, x2 = 0.804 | 11.93 J/K/mol
123.51 K, Crystal of intercomponent compound 1, relaxation calorimetry, x2 = 0.81 | 12 J/K/mol
123.51 K, Crystal of intercomponent compound 2, relaxation calorimeter, x2 = 0.804 | 12.35 J/K/mol
123.53 K, Crystal of intercomponent compound 2, relaxation calorimeter, x2 = 0.804 | 12.4 J/K/mol
127.61 K, Crystal of intercomponent compound 1, relaxation calorimetry, x2 = 0.81 | 12.47 J/K/mol
